Patent publication US20260193180A1, “AUTOPHAGY INDUCING COMPOUNDS AND USES THEREOF” (SAMSARA THERAPEUTICS INC., priority 2022, published 2026)
Structures can show the parent of a compound that is named as a salt. Where two headings read alike, the source gives them in different places.

Key:
[1] = system: U2OS cell line stabling expressing RFP-eGFP-hLC3b; assay: Tandem reporter assay (autophagic flux), RFP-only puncta (autolysosomes); type: cell-based; settings: Homo sapiens, read-out: Activity (Autolysosome % DMSO activity)
Protocol: Selected compounds of this invention were also assessed for their ability to stimulate autophagy using a U2OS cell line stabling expressing RFP-eGFP-hLC3b (a tandem reporter cell line). This assay is further described in WO 2023/089074.
LC3b is a protein found in the membrane of autophagosomes which has been used to generate genetic reporters of autophagy in cells. In these systems a tandem fusion of LC3b is engineered with two fluorescent proteins of different wavelengths: one which is acid sensitive (for example eGFP, which fluoresces green) and the other which is acid insensitive (for example RFP, which fluoresces red). Cells expressing RFP-eGFP-hLC3b can be examined using fluorescent microscopy: the autophagosomes present will fluoresce in both channels (either yellow in an overlay of both channels or puncta that are present in both the individual red and green channels) but the autolysosomes present will fluoresce in the RFP (red) channel only. Using a fluorescent microscope, the number of autophagosomes and autolysosomes can be counted, allowing for the monitoring of both the induction of autophagy (total puncta count) and the rate of autophagic flux (ratio of red-only to red-and-green puncta). The influence of small molecules on autophagy induction and flux can be assessed using this system by comparison to a non-treated control.
Representative Procedure: Human osteosarcoma U20S cells stably expressing RFP-eGFP-hLC3b were seeded (10,000 cells/well) into a 96-well glass-bottom plate (Cell Carrier Ultra, Perkin Elmer) in DMEM Glutamax media (Gibco) supplemented with 10% Fetal Bovine Serum (FBS) and antibiotics (100 μg/ml penicillin, 100 μg/ml streptomycin, Invitrogen), then incubated overnight in a humified atmosphere at 37° C. and 5% CO2. The cells were then treated with the compounds of interest, dissolved in DMSO, in a duplicated 5- or 10-point dose-response. 8 wells were treated with an equivalent volume of DMSO, 4 with 0.3 μM torin-1 as a positive control (MCE) and 4 wells with 0.4 μM torin-1 plus 0.2 μM bafilomycin (MCE) as a control for flux inhibition. The cells were returned to the incubator and the treatment continued for 24 hours. After treatment, the media was aspirated off and the cells fixed with a solution of 4% formaldehyde+1% glutaraldehyde (Sigma) in dPBS (plus magnesium and calcium, Gibco). Fixation was allowed to proceed for 15 minutes at room temperature then the fixative solution discarded and replaced with PBS (Gibco) plus Hoescht 33342 (1 μg/ml, Sigma). After 30 minutes the plates were imaged on an Opera Phenix confocal microscope (Perkin-Elmer) using a 40× water objective, collecting using DAPI, mCherry and GFP channels. Cells were detected based upon the staining of their nuclei with DAPI using the Harmony image analysis software (Perkin-Elmer) and the number of autophagosomes (GFP and RFP puncta) and autolysosomes (RFP only puncta) per cell were counted using the spot picking function within the software.

[2] = system: Human osteosarcoma U2OS cells; assay: Acidic vesicle formation (lysosome/autolysosome staining, LysoView 633 / LysoTracker Deep Red), stimulation of autophagy; type: cell-based; settings: 24 hours; for activation at 0.8 µM: read-out: Activity (percentage increase in acidic vesicle formation over the DMSO-treated control); for activation at 10 µM: read-out: increase in acidic vesicle formation over the DMSO-treated control
Protocol: Lysosomes play a fundamental role in the autophagic pathway by fusing with autophagosomes and creating ‘autolysosomes’ in order to digest their contents. Stimulation of lysosome and autolysosome formation by a compound is indicative of a stimulation of autophagy. The ability of compounds to stimulate lysosome and autolysosome formation, and thus autophagy, in live cells was assessed via fluorescent microscopy using various fluorescent stains for labelling and tracking acidic organelles (including lysosomes and autolysosomes) such as: LysoView™ 650 (70059 and 70059-T, Biotium), LysoView™633 (70058 and 70058-T, Biotium) and LysoTracker™ Deep Red (L12492, ThermoFisher Scientific). The cellular phenotype was quantitatively assessed for the induction of acidic vesicle formation and compared to a non-treated control, thus providing a measure of the ability of the compound under investigation to stimulate autophagy.
Representative procedure using LysoView™633 dye or LysoTracker™ Deep Red dye: Human osteosarcoma U2OS cells (40,000 cells/well) were seeded in a 24 well glass bottom plate (Sensoplate, Greiner Bio-One) and were incubated overnight in a humidified atmosphere at 37° C. and 5% CO2. Cells were grown in DMEM (Gibco) supplemented with 10% Fetal Bovine Serum (FBS) and 100 units/ml penicillin and 100 μg/ml streptomycin (Invitrogen). After the attachment period, cells were treated with different compounds of interest (at various concentrations in DMSO) or DMSO (non-treated control) in cell culture medium and were incubated for 24 hours. Compound-containing medium was removed and cells were incubated with pre-warmed cell culture medium containing 1× LysoView™ 633 (70058 and 70058-T, Biotium) or 50 nM LysoTracker™ Deep Red (L12492, ThermoFisher Scientific) for 45 minutes at 37° C. Finally, cell nuclei were stained for 10 minutes using Hoechst 33342 (1 μg/mL) and then the medium was replaced with fresh medium. The 24 well plate was then fitted into a heated stage on the microscope and cells maintained at 37° C. Images were captured using appropriate filter set for Cy5 and DAPI detection with the EVOS M7000 Microscope (ThermoFisher Scientific). The cellular phenotype was visually assessed for the induction of acidic vesicle formation relative to the non-treated control; multiple images were acquired and analysed using ImageJ or Cell Profiler.

SMILES: N[C@H]1CCN(Cc2cc(Cl)c(OCC3CC3)c(Cl)c2)C1 [Compound 77, (S)-1-(3,5-dichloro-4-(cyclopropylmethoxy)benzyl)pyrrolidin-3-amine hydrochloride]
- activity at 1.25 µM ([1]; average of two runs): 250 to 300%

SMILES: N[C@H]1CCCN(CCc2cc(Cl)c(OCC3CC3)c(Cl)c2)C1 [Compound 74, (S)-1-(3,5-dichloro-4-(cyclopropylmethoxy)phenethyl)piperidin-3-amine hydrochloride]
- activity at 1.25 µM ([1]; average of two runs): > 300%

SMILES: CCOc1ccc(C#N)cc1CCN1CCC[C@H](N)C1 [Compound 83, (S)-3-(2-(3-aminopiperidin-1-yl)ethyl)-4-ethoxybenzonitrile hydrochloride]
- activity at 1.25 µM ([1]; average of two runs): 200 to 250%

SMILES: N[C@@H]1CCN(Cc2cc(Cl)c(OCC3CC3)c(Cl)c2)C1 [Compound 73, (R)-1-(3,5-dichloro-4-(cyclopropylmethoxy)benzyl)pyrrolidin-3-amine hydrochloride]
- activity at 1.25 µM ([1]; average of two runs): 250 to 300%

SMILES: CCOc1ccc(CCN2CC[C@@H](N)C2)cc1F [Compound 88, (R)-1-[2-(4-ethoxy-3-fluorophenyl)ethyl]-3-pyrrolidinylamine hydrochloride]
- activity at 1.25 µM ([1]; average of two runs): 150 to 200%

SMILES: CCOc1ccc(CN2CCC[C@H](N)C2)cc1Cl [Compound 92, (S)-1-[(3-chloro-4-ethoxyphenyl)methyl]-3-piperidylamine hydrochloride]
- activity at 0.5 µM ([1]; 0.5 μM, average of two runs): 150 to 200%

SMILES: CCOc1ccc(C#N)cc1CCN1CC[C@H](N)C1 [Compound 86, (S)-3-(2-(3-aminopyrrolidin-1-yl)ethyl)-4-ethoxy benzonitrile hydrochloride]
- activity at 1.25 µM ([1]; average of two runs): 150 to 200%

SMILES: N[C@H]1CCCN(CCc2ccc(OCC3CC3)c(Cl)c2)C1 [Compound 79, (S)-1-(3-chloro-4-(cyclopropylmethoxy)phenethyl)piperidin-3-amine formate salt]
- activity at 1.25 µM ([1]; average of two runs): 250 to 300%

SMILES: NC1CCN(CCc2cc(Cl)c(OCC3CC3)c(Cl)c2)CC1 [Compound 91, 1-{2-[3,5-Dichloro-4-(cyclopropylmethoxy)phenyl]ethyl}-4-piperidylamine hydrochloride]
- activity at 1.25 µM ([1]; one run): 150 to 200%

SMILES: CCOc1ccc(CCN2CCC(N)CC2)cc1Cl [Compound 71, 1-(3-chloro-4-ethoxyphenethyl)piperidin-4-amine hydrochloride]
- activity at 0.833 µM ([1]; 0.833 μM, average of two runs): 150 to 200%

SMILES: N[C@@H]1CCCN(Cc2cc(Cl)c(OCC3CC3)c(Cl)c2)C1 [Compound 97, (R)-1-{[3,5-dichloro-4-(cyclopropylmethoxy)phenyl]methyl}-3-piperidylamine hydrochloride]
- activity at 1.25 µM ([1]; average of two runs): 150 to 200%

SMILES: CCOc1ccc(CN2CCC(N)CC2)cc1Cl [Compound 75, 1-(3-chloro-4-ethoxybenzyl)piperidin-4-amine hydrochloride]
- activity at 1.25 µM ([1]; average of two runs): 200 to 250%

SMILES: N[C@H]1CCCN(Cc2cc(Cl)c(OCC3CC3)c(Cl)c2)C1 [Compound 96, (S)-1-{[3,5-dichloro-4-(cyclopropylmethoxy)phenyl]methyl}-3-piperidylamine hydrochloride]
- activity at 1.25 µM ([1]; average of two runs): 200 to 250%

SMILES: CCOc1c(Cl)cc(CN2CC[C@H](CN)C2)cc1C#N [Compound 82, (R)-5-((3-(aminomethyl)pyrrolidin-1-yl)methyl)-3-chloro-2-ethoxybenzonitrile hydrochloride]
- activity at 1.25 µM ([1]; one run): 150 to 200%

SMILES: N[C@@H]1CCN(CCc2ccc(OCC3CC3)c(Cl)c2)C1 [Compound 99, (R)-1-{2-[3-chloro-4-(cyclopropylmethoxy)phenyl]ethyl}-3-pyrrolidinylamine hydrochloride]
- activity at 1.25 µM ([1]; average of two runs): 150 to 200%

SMILES: CCOc1c(Cl)cc(CN2CCC(N)CC2)cc1Cl [Compound 90, 1-[(3,5-Dichloro-4-ethoxyphenyl)methyl]-4-piperidylamine hydrochloride]
- activity at 1.25 µM ([1]; average of two runs): 200 to 250%

SMILES: COCCOc1c(Cl)cc(CN2CCC(N)CC2)cc1Cl [Compound 94, 1-{[3,5-dichloro-4-(2-methoxyethoxy)phenyl]methyl}-4-piperidylamine hydrochloride]
- activity at 1.25 µM ([1]; average of two runs): 150 to 200%

SMILES: CCOc1ccc(CN2CCC[C@@H](N)C2)cc1Cl [Compound 93, (R)-1-[(3-chloro-4-ethoxyphenyl)methyl]-3-piperidylamine hydrochloride]
- activity at 1.25 µM ([1]; average of two runs): 150 to 200%

SMILES: CCOc1ccc(C#N)cc1CCN1CC[C@@H](N)C1 [Compound 87, 3-{2-[(R)-3-amino-1-pyrrolidinyl]ethyl}-4-ethoxybenzonitrile hydrochloride]
- activity at 1.25 µM ([1]; average of two runs): 150 to 200%

SMILES: CCOc1ccc(CCN2CC[C@H](N)C2)cc1C#N [Compound 85, (S)-5-(2-(3-aminopyrrolidin-1-yl)ethyl)-2-ethoxybenzonitrile hydrochloride]
- activity at 1.25 µM ([1]; one run): 150 to 200%

SMILES: CCCCOc1ccc(Cl)cc1CN1CC[C@@H](CN)C1 [Compound 27, (S)-(1-(2-butoxy-5-chlorobenzyl)pyrrolidin-3-yl)methanamine hydrochloride]
- activation at 0.8 µM [2]: > 100%
- activation at 10 µM [2]: ≥ 25%

SMILES: CCOc1ccc(C(F)(F)F)cc1CN1CCN[C@H](C)C1 [Compound 36, (R)-1-(2-ethoxy-5-(trifluoromethyl)benzyl)-3-methylpiperazine hydrochloride]
- activation at 0.8 µM [2]: 10 to 30%
- activation at 10 µM [2]: ≥ 25%

SMILES: CCOc1ccc(Cl)cc1CN1CCNCC1 [Compound 40, 1-(5-chloro-2-ethoxybenzyl)piperazine hydrochloride]
- activation at 0.8 µM [2]: 10 to 30%
- activation at 10 µM [2]: ≥ 25%

SMILES: CCOc1ccc(C#N)cc1CCN1CCC[C@@H](CN)C1 [Compound 64, (S)-3-(2-(3-(aminomethyl)piperidin-1-yl)ethyl)-4-ethoxybenzonitrile hydrochloride]
- activation at 10 µM [2]: ≥ 25%

SMILES: CCOc1ccc(Cl)cc1CN1CCC[C@@H](CN)C1 [Compound 7, (S)-(1-(5-chloro-2-ethoxybenzyl)piperidin-3-yl)methanamine hydrochloride]
- activation at 0.8 µM [2]: 30 to 50%
- activation at 10 µM [2]: ≥ 25%

SMILES: CCOc1ccc(C(F)(F)F)cc1CCN1CC[C@@H](CN)C1 [Compound 42, (S)-(1-(2-ethoxy-5-(trifluoromethyl)phenethyl)pyrrolidin-3-yl)methanamine hydrochloride]
- activation at 0.8 µM [2]: 50 to 100%
- activation at 10 µM [2]: ≥ 25%

SMILES: NC[C@@H]1CCN(CCc2ccc(OCC3CC3)c(Cl)c2)C1 [Compound 20, (S)-(1-(3-chloro-4-(cyclopropylmethoxy)phenethyl)pyrrolidin-3-yl)methanamine hydrochloride]
- activation at 10 µM [2]: ≥ 25%

SMILES: CCOc1ccc(Cl)cc1CN1CCO[C@H](CN)C1 [Compound 29, (R)-(4-(5-chloro-2-ethoxybenzyl)morpholin-2-yl)methanamine hydrochloride]
- activation at 0.8 µM [2]: 50 to 100%
- activation at 10 µM [2]: ≥ 25%
